From ChEMBL document CHEMBL5380782, “Design, Biological Evaluation, and Computer-Aided Analysis of Dihydrothiazepines as Selective Antichlamydial Agents” (J Med Chem, 2023)

How the values were obtained:
[1] = Mutagenicity in Salmonella typhimurium TA98 assessed as mutagenic index ratio at 500 ug pretreated for 90 mins measured after 66 hrs by AMES test; assay type: toxicity, Salmonella enterica subsp. enterica serovar Typhimurium; conditions: in vivo, 67.5 h, dose 500 µg
[2] = Mutagenicity in Salmonella typhimurium TA98 assessed as mutagenic index ratio at 50 ug pretreated for 90 mins measured after 66 hrs in presence of S9 fraction by AMES test; assay type: toxicity, subcellular, Salmonella enterica subsp. enterica serovar Typhimurium; conditions: s9, 67.5 h, dose 50 µg
[3] = test system: Chlamydia trachomatis; assay: Antibacterial activity against Chlamydia trachomatis L2 infected in HEp-2 cells assessed as reduction in number of chlamydial inclusion at 3.12 ug/ml incubated for 24 hrs by fluorescence microscopy relative to control; assay type: functional; set-up: scale not given: the % may be the effect or the level left; conditions: dose 3.12 µg/ml
[4] = Mutagenicity in Salmonella typhimurium TA98 assessed as mutagenic index ratio at 150 ug pretreated for 90 mins measured after 66 hrs in presence of S9 fraction by AMES test; assay type: toxicity, subcellular, Salmonella enterica subsp. enterica serovar Typhimurium; conditions: s9, 67.5 h, dose 150 µg
[5] = Cytotoxicity against HEC-1-A cells assessed as cell survival at 256 ug/ml incubated for 20 hrs by XTT assay relative to control; assay type: toxicity, cell-based; conditions: human, at 256 µg/mL, read-out: Survival
[6] = test system: Pseudomonas aeruginosa; assay: Antimicrobial activity against Pseudomonas aeruginosa PA01 assessed as microbial growth inhibition incubated for 24 hrs by TTC staining based assay; assay type: functional
[7] = Mutagenicity in Salmonella typhimurium TA98 assessed as mutagenic index ratio at 1500 ug pretreated for 90 mins measured after 66 hrs by AMES test; assay type: toxicity, Salmonella enterica subsp. enterica serovar Typhimurium; conditions: in vivo, 67.5 h, dose 1500 µg
[8] = Mutagenicity in Salmonella typhimurium TA98 assessed as number of revertants per plate at 5000 ug pretreated for 90 mins measured after 66 hrs in presence of S9 fraction by AMES test (reference value: 24.33 +/- 9.50); assay type: toxicity, subcellular, Salmonella enterica subsp. enterica serovar Typhimurium; conditions: s9, 67.5 h, dose 5000 µg
[9] = test system: Nakaseomyces glabratus; assay: Antimicrobial activity against Candida glabrata 2001 assessed as microbial growth inhibition by broth microdilution method; assay type: functional
[10] = Mutagenicity in Salmonella typhimurium TA100 assessed as number of revertants per plate at 1500 ug pretreated for 90 mins measured after 66 hrs in presence of S9 by AMES test (reference value: 201 +/- 9.90); assay type: toxicity, Salmonella enterica subsp. enterica serovar Typhimurium; conditions: in vivo, 67.5 h, dose 1500 µg
[11] = Mutagenicity in Salmonella typhimurium TA100 assessed as mutagenic index ratio at 150 ug pretreated for 90 mins measured after 66 hrs by AMES test; assay type: toxicity, Salmonella enterica subsp. enterica serovar Typhimurium; conditions: in vivo, 67.5 h, dose 150 µg
[12] = test system: Escherichia coli; assay: Antimicrobial activity against Escherichia coli K12 assessed as microbial growth inhibition incubated for 24 hrs by TTC staining based assay; assay type: functional
[13] = Cytotoxicity against HEK293 cells assessed as cell survival at 256 ug/ml incubated for 20 hrs by XTT assay relative to control; assay type: toxicity, cell-based; conditions: human, at 256 µg/mL, read-out: Survival
[14] = Mutagenicity in Salmonella typhimurium TA100 assessed as number of revertants per plate at 500 ug pretreated for 90 mins measured after 66 hrs in presence of S9 by AMES test (reference value: 201 +/- 9.90); assay type: toxicity, Salmonella enterica subsp. enterica serovar Typhimurium; conditions: in vivo, 67.5 h, dose 500 µg
[15] = Mutagenicity in Salmonella typhimurium TA100 assessed as number of revertants per plate at 150 ug pretreated for 90 mins measured after 66 hrs in presence of S9 by AMES test (reference value: 201 +/- 9.90); assay type: toxicity, Salmonella enterica subsp. enterica serovar Typhimurium; conditions: in vivo, 67.5 h, dose 150 µg
[16] = test system: Lactiplantibacillus plantarum; assay: Antimicrobial activity against Lactobacillus plantarum DSM 20174 assessed as microbial growth inhibition incubated for 24 hrs; assay type: functional
[17] = Mutagenicity in Salmonella typhimurium TA98 assessed as mutagenic index ratio at 150 ug pretreated for 90 mins measured after 66 hrs by AMES test; assay type: toxicity, Salmonella enterica subsp. enterica serovar Typhimurium; conditions: in vivo, 67.5 h, dose 150 µg
[18] = Mutagenicity in Salmonella typhimurium TA98 assessed as mutagenic index ratio at 5000 ug pretreated for 90 mins measured after 66 hrs by AMES test; assay type: toxicity, Salmonella enterica subsp. enterica serovar Typhimurium; conditions: in vivo, 67.5 h, dose 5000 µg
[19] = Mutagenicity in Salmonella typhimurium TA98 assessed as number of revertants per plate at 150 ug pretreated for 90 mins measured after 66 hrs in presence of S9 fraction by AMES test (reference value: 24.33 +/- 9.50); assay type: toxicity, subcellular, Salmonella enterica subsp. enterica serovar Typhimurium; conditions: s9, 67.5 h, dose 150 µg
[20] = Mutagenicity in Salmonella typhimurium TA100 assessed as mutagenic index ratio at 500 ug pretreated for 90 mins measured after 66 hrs in presence of S9 by AMES test; assay type: toxicity, Salmonella enterica subsp. enterica serovar Typhimurium; conditions: in vivo, 67.5 h, dose 500 µg
[21] = Mutagenicity in Salmonella typhimurium TA98 assessed as number of revertants per plate at 150 ug pretreated for 90 mins measured after 66 hrs by AMES test (reference value: 25.67 +/- 5.51); assay type: toxicity, Salmonella enterica subsp. enterica serovar Typhimurium; conditions: in vivo, 67.5 h, dose 150 µg
[22] = Cytotoxicity against HEp-2 cells assessed as cell viability at 256 ug/ml incubated for 20 hrs by XTT assay relative to control; assay type: toxicity, cell-based; conditions: human, at 256 µg/mL, read-out: Activity
[23] = Mutagenicity in Salmonella typhimurium TA98 assessed as number of revertants per plate at 1500 ug pretreated for 90 mins measured after 66 hrs by AMES test (reference value: 25.67 +/- 5.51); assay type: toxicity, Salmonella enterica subsp. enterica serovar Typhimurium; conditions: in vivo, 67.5 h, dose 1500 µg
[24] = Mutagenicity in Salmonella typhimurium TA98 assessed as number of revertants per plate at 5000 ug pretreated for 90 mins measured after 66 hrs by AMES test (reference value: 25.67 +/- 5.51); assay type: toxicity, Salmonella enterica subsp. enterica serovar Typhimurium; conditions: in vivo, 67.5 h, dose 5000 µg
[25] = Mutagenicity in Salmonella typhimurium TA100 assessed as mutagenic index ratio at 1500 ug pretreated for 90 mins measured after 66 hrs by AMES test; assay type: toxicity, Salmonella enterica subsp. enterica serovar Typhimurium; conditions: in vivo, 67.5 h, dose 1500 µg
[26] = Mutagenicity in Salmonella typhimurium TA100 assessed as mutagenic index ratio at 50 ug pretreated for 90 mins measured after 66 hrs by AMES test; assay type: toxicity, Salmonella enterica subsp. enterica serovar Typhimurium; conditions: in vivo, 67.5 h, dose 50 µg
[27] = Stability of compound in simulated gastric fluid assessed as compound remaining at 2 mg/ml measured after 24 hrs by HPLC analysis; assay type: ADME; conditions: read-out: Stability
[28] = test system: Escherichia coli; assay: Antimicrobial activity against non-pathogenic Escherichia coli ATCC MG1655 assessed as microbial growth inhibition incubated for 24 hrs by TTC staining based assay; assay type: functional
[29] = Mutagenicity in Salmonella typhimurium TA100 assessed as number of revertants per plate at 1500 ug pretreated for 90 mins measured after 66 hrs by AMES test (reference value: 206 +/- 7.07); assay type: toxicity, Salmonella enterica subsp. enterica serovar Typhimurium; conditions: in vivo, 67.5 h, dose 1500 µg
[30] = Mutagenicity in Salmonella typhimurium TA98 assessed as mutagenic index ratio at 50 ug pretreated for 90 mins measured after 66 hrs by AMES test; assay type: toxicity, Salmonella enterica subsp. enterica serovar Typhimurium; conditions: in vivo, 67.5 h, dose 50 µg
[31] = Stability of compound in human serum assessed as compound remaining at 2 mg/ml measured after 180 mins by HPLC analysis; assay type: ADME, cell-free; conditions: read-out: Stability
[32] = Mutagenicity in Salmonella typhimurium TA98 assessed as mutagenic index ratio at 500 ug pretreated for 90 mins measured after 66 hrs in presence of S9 fraction by AMES test; assay type: toxicity, subcellular, Salmonella enterica subsp. enterica serovar Typhimurium; conditions: s9, 67.5 h, dose 500 µg
[33] = Mutagenicity in Salmonella typhimurium TA100 assessed as mutagenic index ratio at 5000 ug pretreated for 90 mins measured after 66 hrs in presence of S9 by AMES test; assay type: toxicity, Salmonella enterica subsp. enterica serovar Typhimurium; conditions: in vivo, 67.5 h, dose 5000 µg
[34] = test system: Blautia producta; assay: Antimicrobial activity against Blautia producta DSM 2950 assessed as microbial growth inhibition incubated for 48 hrs; assay type: functional

`N#Cc1ccccc1C1Sc2ccccc2NC2=C1C(=O)c1ccccc12` (centres undefined) showed a Ratio [1] of 1.48, a Ratio [2] of 1.31 and an Activity [3] of under 60%. For the same compound, the Ratio [4] was 1.43, the viability at 20 h, 256 ug/ml [5] was at least 75% and the MIC [6] was over 125 µg/mL. It also gave a Ratio [7] of 1.51, an Activity [8] of 43.5 and an MIC [9] of over 1000 µg/mL. For the same compound, the Activity [10] was 198.5, the Ratio [11] was 0.91 and the MIC [12] was over 125 µg/mL. For the same compound, the viability at 20 h, 256 ug/ml [13] was at least 75%, the Activity [14] was 191.5 and the Activity [15] was 187. For the same compound, the MIC [16] was over 125 µg/mL, the Ratio [17] was 1.34 and the Ratio [18] was 1.46. For the same compound, the Activity [19] was 35, the Ratio [20] was 0.95 and the Activity [21] was 34.5. It also gave a viability at 20 h, 256 ug/ml [22] of 50%, an Activity [23] of 39 and an Activity [24] of 37.5. For the same compound, the Ratio [25] was 1.16, the Ratio [26] was 0.92 and the remaining at 24 h, 2 mg/ml [27] was 70%. For the same compound, the MIC [28] was over 125 µg/mL, the Activity [29] was 241 and the Ratio [30] was 1.01. The remaining at 3 h, 2 mg/ml [31] was 100%, the Ratio [32] was 1.78 and the Ratio [33] was 1.12. It also gave an MIC [34] of over 125 µg/mL.
